{"source": "ChEMBL document CHEMBL6078666", "about": "“Discovery of Novel Coumarin Pleuromutilin Derivatives as Potent Anti-MRSA Agents” (J Med Chem, 2024)", "key": {"[1]": {"tested_on": "Staphylococcus epidermidis", "assay": "Antibacterial activity against Staphylococcus epidermidis ATCC 51625 assessed as bacterial growth inhibition measured after 20 hrs by broth dilution method", "type": "functional"}, "[2]": {"tested_on": "Staphylococcus aureus", "assay": "Antibacterial activity against methicillin-resistant Staphylococcus aureus ATCC 33591 infected in female C57 mouse systemic infection model assessed as reduction in bacterial load in spleen at 40 mg/kg, iv administered twice daily and measured after 7 days", "type": "functional", "conditions": "time 7 day"}, "[3]": {"tested_on": "Staphylococcus aureus", "assay": "Antibacterial activity against Staphylococcus aureus ATCC 25923 assessed as reduction in GFP expression at 1 to 4 times MIC measured after 1 hr by fluorescence microscopy based analysis", "type": "functional, organism-based"}, "[4]": {"tested_on": "Enterococcus faecium", "assay": "Ratio of MBC to MIC against vancomycin-resistant Enterococcus faecium ATCC 700221", "type": "functional"}, "[5]": {"tested_on": "Streptococcus pneumoniae", "assay": "Antibacterial activity against penicillin-intermediate Streptococcus pneumoniae ATCC 49619 assessed as bacterial growth inhibition measured after 20 hrs by broth dilution method", "type": "functional"}, "[6]": {"tested_on": "Staphylococcus aureus", "assay": "Antibacterial activity against methicillin-resistant Staphylococcus aureus clinical isolate 202405157 assessed as bacterial growth inhibition measured after 20 hrs by broth dilution method", "type": "functional"}, "[7]": {"tested_on": "Enterococcus faecium", "assay": "Antibacterial activity against vancomycin-resistant Enterococcus faecium ATCC 51559 assessed as bacterial growth inhibition measured after 20 hrs by broth dilution method", "type": "functional"}, "[8]": {"tested_on": "Staphylococcus aureus", "assay": "Antibacterial activity against methicillin-resistant Staphylococcus aureus ATCC 33591 infected in female C57 mouse systemic infection model assessed as reduction in bacterial load in heart at 40 mg/kg, iv administered twice daily and measured after 7 days", "type": "functional", "conditions": "time 7 day"}, "[9]": {"tested_on": "Staphylococcus aureus", "assay": "Antibacterial activity against methicillin-resistant Staphylococcus aureus clinical isolate 202313160 assessed as bacterial growth inhibition measured after 20 hrs by broth dilution method", "type": "functional"}, "[10]": {"tested_on": "Staphylococcus epidermidis", "assay": "Antibacterial activity against methicillin-resistant Staphylococcus epidermidis clinical isolate 202409139 assessed as bacterial growth inhibition measured after 20 hrs by broth dilution method", "type": "functional"}, "[11]": {"tested_on": "Staphylococcus epidermidis", "assay": "Ratio of MBC to MIC against Staphylococcus epidermidis ATCC 51625", "type": "functional"}, "[12]": {"tested_on": "Staphylococcus aureus", "assay": "Bactericidal activity against methicillin-resistant Staphylococcus aureus ATCC 33591 at 4 to 8 times MIC measured within 24 hrs by time kill assay", "type": "functional, organism-based"}, "[13]": {"tested_on": "Staphylococcus aureus", "assay": "Induction of morphological changes in methicillin-resistant Staphylococcus aureus ATCC 33591 assessed as changes in cell surface at 1 time MIC measured after 4 hrs by SEM analysis", "type": "functional, organism-based"}, "[14]": {"tested_on": "Staphylococcus aureus", "assay": "Antibacterial activity against methicillin-resistant Staphylococcus aureus ATCC 33591 infected in female C57 mouse systemic infection model assessed as effective dose", "type": "functional"}, "[15]": {"tested_on": "Staphylococcus aureus", "assay": "Drug resistance, ratio of MIC for Staphylococcus aureus ATCC 33591 after 8 days to MIC for methicillin-resistant Staphylococcus aureus ATCC 33591 after initial exposure", "type": "functional", "conditions": "time 8 day"}, "[16]": {"tested_on": "Staphylococcus aureus", "assay": "Antibacterial activity against methicillin resistant Staphylococcus aureus ATCC 33591 assessed as post antibiotic effect at 4 times MIC by time kill assay", "type": "functional"}, "[17]": {"tested_on": "Staphylococcus epidermidis", "assay": "Antibacterial activity against methicillin-resistant Staphylococcus epidermidis clinical isolate 202409454 assessed as bacterial growth inhibition measured after 20 hrs by broth dilution method", "type": "functional"}, "[18]": {"tested_on": "Staphylococcus aureus", "assay": "Ratio of MBC to MIC against methicillin-resistant Staphylococcus aureus clinical isolate 202311772", "type": "functional"}, "[19]": {"tested_on": "Enterococcus faecium", "assay": "Antibacterial activity against vancomycin-resistant Enterococcus faecium ATCC 700221 assessed as bacterial growth inhibition measured after 20 hrs by broth dilution method", "type": "functional"}, "[20]": {"tested_on": "Staphylococcus aureus", "assay": "Antibacterial activity against methicillin-resistant Staphylococcus aureus ATCC 33591 infected in female C57 mouse systemic infection model assessed as reduction in bacterial load in lung at 40 mg/kg, iv administered twice daily and measured after 7 days", "type": "functional", "conditions": "time 7 day"}, "[21]": {"tested_on": "Staphylococcus aureus", "assay": "Antibacterial activity against methicillin-resistant Staphylococcus aureus clinical isolate 202311772 assessed as bacterial growth inhibition measured after 20 hrs by broth dilution method", "type": "functional"}, "[22]": {"tested_on": "Staphylococcus aureus", "assay": "Antibacterial activity against methicillin-resistant Staphylococcus aureus ATCC 33591 infected in female C57 mouse systemic infection model assessed as reduction in bacterial load in kidney at 40 mg/kg, iv administered twice daily and measured after 7 days", "type": "functional", "conditions": "time 7 day"}, "[23]": {"tested_on": "Enterococcus faecium", "assay": "Ratio of MBC to MIC against vancomycin-resistant Enterococcus faecium clinical isolate 202308456", "type": "functional"}, "[24]": {"tested_on": "Enterococcus faecium", "assay": "Ratio of MBC to MIC against vancomycin-resistant Enterococcus faecium ATCC 51559", "type": "functional"}, "[25]": {"tested_on": "Streptococcus pneumoniae", "assay": "Ratio of MBC to MIC against penicillin-intermediate Streptococcus pneumoniae ATCC 49619", "type": "functional"}, "[26]": {"tested_on": "Enterococcus faecium", "assay": "Antibacterial activity against vancomycin-resistant Enterococcus faecium clinical isolate 202308456 assessed as bacterial growth inhibition measured after 20 hrs by broth dilution method", "type": "functional"}, "[27]": {"tested_on": "Staphylococcus aureus", "assay": "Ratio of MBC to MIC against Staphylococcus aureus ATCC 43300", "type": "functional"}, "[28]": {"tested_on": "Staphylococcus aureus", "assay": "Drug resistance, ratio of MIC for Staphylococcus aureus ATCC 33591 after 9 days to MIC for methicillin-resistant Staphylococcus aureus ATCC 33591 after initial exposure", "type": "functional", "conditions": "time 9 day"}, "[29]": {"tested_on": "Staphylococcus aureus", "assay": "Antibacterial activity against methicillin-resistant Staphylococcus aureus ATCC 33591 infected in female C57 mouse systemic infection model assessed as reduction in bacterial load in liver at 40 mg/kg, iv administered twice daily and measured after 7 days", "type": "functional", "conditions": "time 7 day"}, "[30]": {"tested_on": "Staphylococcus aureus", "assay": "Antibacterial activity against methicillin-resistant Staphylococcus aureus ATCC 43300 assessed as bacterial growth inhibition measured after 20 hrs by broth dilution method", "type": "functional"}, "[31]": {"tested_on": "Streptococcus pneumoniae", "assay": "Antibacterial activity against penicillin-resistant Streptococcus pneumoniae ATCC 51916 assessed as bacterial growth inhibition measured after 20 hrs by broth dilution method", "type": "functional"}, "[32]": {"tested_on": "Staphylococcus aureus", "assay": "Ratio of MBC to MIC against methicillin-resistant Staphylococcus aureus clinical isolate 202405157", "type": "functional"}, "[33]": {"tested_on": "Staphylococcus aureus", "assay": "Antibacterial activity against methicillin-resistant Staphylococcus aureus ATCC 33591 assessed as bacterial growth inhibition measured after 20 hrs by broth dilution method", "type": "functional"}, "[34]": {"tested_on": "Staphylococcus aureus", "assay": "Antibacterial activity against methicillin resistant Staphylococcus aureus ATCC 33591 assessed as post antibiotic effect at 2 times MIC by time kill assay", "type": "functional"}, "[35]": {"tested_on": "Staphylococcus aureus", "assay": "Ratio of MBC to MIC against methicillin-resistant Staphylococcus aureus ATCC 33591", "type": "functional"}}, "note": "The source made the active and inactive calls. The calls are words filed in the database; no cut-off is given here."}
{"molecule": "C=C[C@]1(C)C[C@@H](OC(=O)CSCCN(CC)CC)[C@]2(C)[C@H](C)CC[C@]3(CCC(=O)[C@H]32)[C@@H](C)[C@@H]1O", "note": "[TIAMULIN]", "values": [{"measurement": "MIC", "setting": "[1]", "result": 0.125, "unit": "µg/mL"}, {"measurement": "Activity", "setting": "[2]", "result": 0.7, "unit": "log10CFU/g"}, {"measurement": "Activity", "setting": "[3]", "result": "Active"}, {"measurement": "Ratio", "setting": "[4]", "result": ">4"}, {"measurement": "MIC", "setting": "[5]", "result": 0.25, "unit": "µg/mL"}, {"measurement": "MIC", "setting": "[6]", "result": 2, "unit": "µg/mL"}, {"measurement": "MIC", "setting": "[7]", "result": 0.5, "unit": "µg/mL"}, {"measurement": "Activity", "setting": "[8]", "result": 2.05, "unit": "log10CFU/g"}, {"measurement": "MIC", "setting": "[9]", "result": 1, "unit": "µg/mL"}, {"measurement": "MIC", "setting": "[10]", "result": 1, "unit": "µg/mL"}, {"measurement": "Ratio", "setting": "[11]", "result": ">4"}, {"measurement": "Activity", "setting": "[12]", "result": "Active"}, {"measurement": "Activity", "setting": "[13]", "result": "inactive"}, {"measurement": "ED50", "setting": "[14]", "result": 28.9, "unit": "mg/kg"}, {"measurement": "fold change (FC)", "setting": "[15]", "result": 4}, {"measurement": "PAE", "setting": "[16]", "result": 1.19, "unit": "h"}, {"measurement": "MIC", "setting": "[17]", "result": 2, "unit": "µg/mL"}, {"measurement": "Ratio", "setting": "[18]", "result": 4}, {"measurement": "MIC", "setting": "[19]", "result": 0.125, "unit": "µg/mL"}, {"measurement": "Activity", "setting": "[20]", "result": 1.23, "unit": "log10CFU/g"}, {"measurement": "MIC", "setting": "[21]", "result": 2, "unit": "µg/mL"}, {"measurement": "Activity", "setting": "[22]", "result": 1.39, "unit": "log10CFU/g"}, {"measurement": "Ratio", "setting": "[23]", "result": 4}, {"measurement": "Ratio", "setting": "[24]", "result": 2}, {"measurement": "Ratio", "setting": "[25]", "result": ">4"}, {"measurement": "MIC", "setting": "[26]", "result": 2, "unit": "µg/mL"}, {"measurement": "Ratio", "setting": "[27]", "result": ">4"}, {"measurement": "fold change (FC)", "setting": "[28]", "result": 64}, {"measurement": "Activity", "setting": "[29]", "result": 0.28, "unit": "log10CFU/g"}, {"measurement": "MIC", "setting": "[30]", "result": 0.5, "unit": "µg/mL"}, {"measurement": "MIC", "setting": "[31]", "result": 0.125, "unit": "µg/mL"}, {"measurement": "Ratio", "setting": "[32]", "result": 4}, {"measurement": "MIC", "setting": "[33]", "result": 0.5, "unit": "µg/mL"}, {"measurement": "PAE", "setting": "[34]", "result": 1.07, "unit": "h"}, {"measurement": "Ratio", "setting": "[35]", "result": 4}]}
